Source: ChEMBL document CHEMBL1221281, “Discovery of 2-(4-((1H-1,2,4-triazol-1-yl)methyl)-5-(4-bromophenyl)-1-(2-chlorophenyl)-1H-pyrazol-3-yl)-5-tert-butyl-1,3,4-thiadiazole (GCC2680) as a potent, selective and orally efficacious cannabinoid-1 receptor antagonist” (Bioorg Med Chem, 2010)

Legend:
[1] = Half life in Sprague-Dawley rat at 1 mg/kg, iv; type: ADME, organism-based; parameters: dose 1 mg/kg, route intravenous; settings: in vivo
Cytochrome P450 3A4 = Cytochrome P450 3A4 (Homo sapiens, UniProt P08684); experiment: Inhibition of CYP3A4 in human liver microsomes after 30 mins; type: ADME, Microsome
[2] = Half life in Sprague-Dawley rat at 5 mg/kg, po; type: ADME, organism-based; parameters: dose 5 mg/kg, route oral; settings: in vivo
Rattus norvegicus [3] = experiment: Antiobesity activity in diet-induced obesity Sprague-Dawley rat model assessed as reduction of body weight administered at 10 mg/kg, po qd for 13 days; type: functional; parameters: scale not given: the % may be the effect or the level left
Rattus norvegicus [4] = experiment: AUC (0 to infinity) in Sprague-Dawley rat at 1 mg/kg, iv; type: ADME, organism-based, Plasma; parameters: time infinity, dose 1 mg/kg, route intravenous; settings: in vivo
[5] = Oral bioavailability in Sprague-Dawley rat at 5 mg/kg, po; type: ADME, organism-based; settings: in vivo
Rattus norvegicus [6] = experiment: Clast in Sprague-Dawley rat at 1 mg/kg, iv; type: ADME, organism-based; parameters: dose 1 mg/kg, route intravenous; settings: in vivo
[7] = Mutagenic activity in Salmonella Typhimurium TA100 assessed as number of spontaneous and drug-induced revertants after 48 hrs by Ames test; type: toxicity; settings: salmonella enterica subsp. enterica serovar typhimurium
[8] = biological target: Voltage-gated inwardly rectifying potassium channel KCNH2 (Homo sapiens, UniProt Q12809); experiment: Inhibition of human ERG at holding potential of -80 mV to +40 mV
Nucleic Acid = experiment: Induction of DNA damage up to 50 uM after 2 hrs by comet assay; type: nucleic-acid assay
Cytochrome P450 2D6 = Cytochrome P450 2D6 (Homo sapiens, UniProt P10635); experiment: Inhibition of CYP2D6 in human liver microsomes after 30 mins; type: ADME, Microsome
Mus musculus [9] = experiment: Antiobesity activity in diet-induced obesity C57BL/6 mouse model assessed as reduction of body weight at 10 mg/kg, po qd for 14 days; type: functional; parameters: scale not given: the % may be the effect or the level left
Rattus norvegicus [10] = experiment: AUC (0 to infinity) in Sprague-Dawley rat at 5 mg/kg, po; type: ADME, organism-based, Plasma; parameters: time infinity, dose 5 mg/kg, route oral; settings: in vivo
[11] = Clearance in Sprague-Dawley rat at 1 mg/kg, iv; type: ADME, organism-based; parameters: dose 1 mg/kg, route intravenous; settings: in vivo
Cytochrome P450 1A2 = biological target: T1, Cytochrome P450 1A2 (Homo sapiens, UniProt P05177); experiment: Inhibition of CYP1A2 in human liver microsomes after 30 mins; type: ADME, Microsome
T1 sequence (P05177 whole entry): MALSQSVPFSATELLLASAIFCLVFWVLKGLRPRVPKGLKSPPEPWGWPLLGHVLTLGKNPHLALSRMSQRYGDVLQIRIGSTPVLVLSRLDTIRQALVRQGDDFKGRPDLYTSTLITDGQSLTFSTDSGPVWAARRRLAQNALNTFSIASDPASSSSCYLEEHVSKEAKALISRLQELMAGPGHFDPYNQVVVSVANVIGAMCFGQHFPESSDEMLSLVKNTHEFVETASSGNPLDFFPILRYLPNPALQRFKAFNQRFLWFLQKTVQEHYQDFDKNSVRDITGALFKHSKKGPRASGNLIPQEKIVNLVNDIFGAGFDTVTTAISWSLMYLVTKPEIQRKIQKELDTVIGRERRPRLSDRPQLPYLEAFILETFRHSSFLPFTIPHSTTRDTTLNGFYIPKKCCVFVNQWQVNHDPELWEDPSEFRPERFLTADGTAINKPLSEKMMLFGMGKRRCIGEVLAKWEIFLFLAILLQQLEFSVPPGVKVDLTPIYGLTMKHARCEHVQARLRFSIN

[12] = Cmax in Sprague-Dawley rat at 1 mg/kg, iv; type: ADME, organism-based; parameters: dose 1 mg/kg, route intravenous; settings: in vivo
[13] = Cmax in Sprague-Dawley rat at 5 mg/kg, po; type: ADME, organism-based; parameters: dose 5 mg/kg, route oral; settings: in vivo
[14] = Tmax in Sprague-Dawley rat at 5 mg/kg, po; type: ADME, organism-based; parameters: dose 5 mg/kg, route oral; settings: in vivo
[15] = Selectivity ratio of IC50 for human CB2 receptor to IC50 for CB1 receptor in Sprague-Dawley rat cerebellum; type: tissue-based
Cannabinoid receptor 1 = Cannabinoid receptor 1 (Rattus norvegicus, UniProt P20272)
Description: Displacement of [3H]CP-55940 from CB1 receptor in Sprague-Dawley rat cerebellum after 1 hr by liquid scintillation counting

Cannabinoid receptor 2 = Cannabinoid receptor 2 (Homo sapiens, UniProt P34972); experiment: Displacement of [3H]WIN-55212-2 from human CB2 receptor expressed in CHO-K1 cells after 1 hr by liquid scintillation counting; type: cell-based
Cytochrome P450 2C9 = Cytochrome P450 2C9 (Homo sapiens, UniProt P11712); experiment: Inhibition of CYP2C9 in human liver microsomes after 30 mins; type: ADME, Microsome
Rattus norvegicus [16] = experiment: Clast in Sprague-Dawley rat at 5 mg/kg, po; type: ADME, organism-based; parameters: dose 5 mg/kg, route oral; settings: in vivo
[17] = Ratio of drug level in brain to plasma in Sprague-Dawley rat; type: ADME
Vero = experiment: Cytotoxicity against african green monkey Vero cells; type: cell-based; settings: Chlorocebus sabaeus
HEK293 = experiment: Cytotoxicity against human HEK293 cells; type: cell-based
[18] = Cytotoxicity against human HuH7 cells; type: cell-based; settings: Huh-7
Mus musculus [19] = experiment: Antiobesity activity in diet-induced obesity C57BL/6 mouse model assessed as reduction of body weight at 3 mg/kg, po qd for 13 days; type: functional; parameters: scale not given: the % may be the effect or the level left
HCT-116 = experiment: Cytotoxicity against human HCT116 cells; type: cell-based

Sequence of Cannabinoid receptor 1 (P20272 whole entry): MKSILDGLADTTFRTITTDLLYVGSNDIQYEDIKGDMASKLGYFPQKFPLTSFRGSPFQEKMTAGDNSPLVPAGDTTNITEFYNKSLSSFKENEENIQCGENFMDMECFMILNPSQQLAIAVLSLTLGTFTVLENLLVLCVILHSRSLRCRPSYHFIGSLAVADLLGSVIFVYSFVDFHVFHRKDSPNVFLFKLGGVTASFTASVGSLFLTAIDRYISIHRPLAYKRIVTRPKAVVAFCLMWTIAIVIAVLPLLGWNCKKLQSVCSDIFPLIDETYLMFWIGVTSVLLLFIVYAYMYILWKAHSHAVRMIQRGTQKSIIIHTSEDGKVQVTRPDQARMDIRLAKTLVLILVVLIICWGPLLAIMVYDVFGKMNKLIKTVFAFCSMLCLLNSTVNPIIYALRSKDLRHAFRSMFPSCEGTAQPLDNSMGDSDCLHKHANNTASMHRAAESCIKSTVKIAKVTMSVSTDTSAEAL
Sequence of Cannabinoid receptor 2 (P34972 whole entry): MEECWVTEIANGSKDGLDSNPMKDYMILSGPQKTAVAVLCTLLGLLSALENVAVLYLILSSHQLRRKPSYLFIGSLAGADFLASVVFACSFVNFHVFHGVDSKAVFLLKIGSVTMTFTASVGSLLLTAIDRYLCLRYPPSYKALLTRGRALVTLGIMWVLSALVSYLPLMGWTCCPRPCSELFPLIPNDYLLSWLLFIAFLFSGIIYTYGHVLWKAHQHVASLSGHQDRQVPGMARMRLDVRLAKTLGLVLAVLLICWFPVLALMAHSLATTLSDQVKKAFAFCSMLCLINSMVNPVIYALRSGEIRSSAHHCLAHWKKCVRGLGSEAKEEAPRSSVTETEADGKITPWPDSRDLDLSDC
Sequence of Cytochrome P450 3A4 (P08684 whole entry): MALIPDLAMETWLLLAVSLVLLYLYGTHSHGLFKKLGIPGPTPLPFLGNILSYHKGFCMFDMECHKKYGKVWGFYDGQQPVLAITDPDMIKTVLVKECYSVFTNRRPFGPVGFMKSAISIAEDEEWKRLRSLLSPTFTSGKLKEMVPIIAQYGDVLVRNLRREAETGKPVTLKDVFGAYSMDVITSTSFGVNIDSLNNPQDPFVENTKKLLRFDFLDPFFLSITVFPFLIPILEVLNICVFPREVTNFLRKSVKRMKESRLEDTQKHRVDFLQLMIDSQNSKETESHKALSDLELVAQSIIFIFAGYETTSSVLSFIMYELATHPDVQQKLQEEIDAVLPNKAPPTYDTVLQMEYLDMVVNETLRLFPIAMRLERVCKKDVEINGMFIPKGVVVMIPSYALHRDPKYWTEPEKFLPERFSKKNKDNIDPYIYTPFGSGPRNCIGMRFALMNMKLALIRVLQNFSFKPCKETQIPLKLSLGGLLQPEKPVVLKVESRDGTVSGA
Sequence of Cytochrome P450 2D6 (P10635 whole entry): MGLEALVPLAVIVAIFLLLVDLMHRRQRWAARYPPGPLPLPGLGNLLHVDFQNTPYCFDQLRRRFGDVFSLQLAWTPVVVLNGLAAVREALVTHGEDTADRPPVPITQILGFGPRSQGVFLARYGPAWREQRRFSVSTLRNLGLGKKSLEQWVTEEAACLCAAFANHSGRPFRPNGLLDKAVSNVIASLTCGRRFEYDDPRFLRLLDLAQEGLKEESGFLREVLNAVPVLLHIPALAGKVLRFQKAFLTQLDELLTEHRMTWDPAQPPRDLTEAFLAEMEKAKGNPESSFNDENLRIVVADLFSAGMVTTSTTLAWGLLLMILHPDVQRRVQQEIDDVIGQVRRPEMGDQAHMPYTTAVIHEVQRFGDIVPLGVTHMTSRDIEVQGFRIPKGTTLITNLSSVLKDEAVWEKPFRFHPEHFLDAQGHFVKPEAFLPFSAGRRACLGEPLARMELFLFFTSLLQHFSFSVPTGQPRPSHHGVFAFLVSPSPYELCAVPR
Sequence of Voltage-gated inwardly rectifying potassium channel KCNH2 (Q12809 whole entry): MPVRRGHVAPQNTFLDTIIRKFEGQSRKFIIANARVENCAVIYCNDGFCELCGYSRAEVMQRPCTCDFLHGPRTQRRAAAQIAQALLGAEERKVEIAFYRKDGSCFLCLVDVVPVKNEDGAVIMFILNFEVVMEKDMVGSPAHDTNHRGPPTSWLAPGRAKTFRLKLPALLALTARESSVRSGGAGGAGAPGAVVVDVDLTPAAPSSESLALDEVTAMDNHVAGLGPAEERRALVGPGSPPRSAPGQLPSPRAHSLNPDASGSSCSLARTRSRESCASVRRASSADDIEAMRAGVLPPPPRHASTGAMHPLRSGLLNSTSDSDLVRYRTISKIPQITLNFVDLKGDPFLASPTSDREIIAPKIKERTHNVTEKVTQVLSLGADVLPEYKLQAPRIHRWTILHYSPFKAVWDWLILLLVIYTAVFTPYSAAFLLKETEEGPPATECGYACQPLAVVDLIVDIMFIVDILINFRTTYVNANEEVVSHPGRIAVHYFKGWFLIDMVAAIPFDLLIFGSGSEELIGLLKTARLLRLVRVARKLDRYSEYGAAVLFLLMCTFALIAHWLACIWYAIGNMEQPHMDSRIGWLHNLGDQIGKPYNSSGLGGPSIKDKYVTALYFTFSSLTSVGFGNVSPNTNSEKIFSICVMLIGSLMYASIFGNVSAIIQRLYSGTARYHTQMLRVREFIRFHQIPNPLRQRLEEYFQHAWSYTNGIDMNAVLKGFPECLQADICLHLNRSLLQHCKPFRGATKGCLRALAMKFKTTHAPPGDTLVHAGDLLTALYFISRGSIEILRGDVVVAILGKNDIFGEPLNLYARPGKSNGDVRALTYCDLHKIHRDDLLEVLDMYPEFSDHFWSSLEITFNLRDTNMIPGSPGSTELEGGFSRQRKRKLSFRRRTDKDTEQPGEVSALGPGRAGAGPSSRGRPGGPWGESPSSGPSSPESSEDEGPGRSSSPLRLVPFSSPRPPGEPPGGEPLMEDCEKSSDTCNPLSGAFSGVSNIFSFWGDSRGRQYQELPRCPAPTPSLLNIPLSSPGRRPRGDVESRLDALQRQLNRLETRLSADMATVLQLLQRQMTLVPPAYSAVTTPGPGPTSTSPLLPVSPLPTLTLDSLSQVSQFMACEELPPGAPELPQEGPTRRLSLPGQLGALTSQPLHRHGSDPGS
Sequence of Cytochrome P450 2C9 (P11712 whole entry): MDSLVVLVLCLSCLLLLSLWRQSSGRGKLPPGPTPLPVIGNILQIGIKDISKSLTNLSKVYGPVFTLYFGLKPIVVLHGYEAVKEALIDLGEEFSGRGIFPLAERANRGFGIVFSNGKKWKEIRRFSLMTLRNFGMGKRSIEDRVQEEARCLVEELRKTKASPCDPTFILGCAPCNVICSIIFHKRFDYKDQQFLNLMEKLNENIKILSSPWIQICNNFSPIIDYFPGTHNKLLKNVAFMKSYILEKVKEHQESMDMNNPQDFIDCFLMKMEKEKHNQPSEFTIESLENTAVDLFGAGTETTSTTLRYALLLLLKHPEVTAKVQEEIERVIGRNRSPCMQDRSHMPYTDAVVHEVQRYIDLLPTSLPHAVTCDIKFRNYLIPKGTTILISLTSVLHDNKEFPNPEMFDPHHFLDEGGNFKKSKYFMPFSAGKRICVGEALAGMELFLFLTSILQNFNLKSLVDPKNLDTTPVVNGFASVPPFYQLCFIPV

| SMILES | Activity (Mus musculus [9]) [%] | Ratio IC50 [15] | IC50 (Cannabinoid receptor 1) [nM] | IC50 (Cannabinoid receptor 2) [nM] | also measured |
| --- | --- | --- | --- | --- | --- |
| Cc1c(C(=O)NN2CCCCC2)nn(-c2ccc(Cl)cc2Cl)c1-c1ccc(Cl)cc1 [RIMONABANT] | 18.02 |  |  |  | half-life [1]: 3.09 h; IC50 (Cytochrome P450 3A4): > 20000 nM; half-life [2]: 8.23 h; Activity (Rattus norvegicus [3]): 10.61%; AUC (Rattus norvegicus [4]): 12.59 min/µg/mL; bioavailability [5]: 53.1%; Clast (Rattus norvegicus [6]): 10 ng/mL; Activity [7]: Non-toxic; IC50 [8]: 4800 nM; Activity (Nucleic Acid): Non-toxic; IC50 (Cytochrome P450 2D6): > 20000 nM; AUC (Rattus norvegicus [10]): 33.4 min/µg/mL; clearance [11]: 82.4 mL/min/kg; IC50 (Cytochrome P450 1A2): > 20000 nM; Cmax [12]: 300 ng/mL; Cmax [13]: 290 ng/mL; Tmax [14]: 0.5 h |
| FC(F)(F)c1ccccc1-n1nc(-c2nnc(C3(C(F)(F)F)CCC3)s2)c(Cn2cncn2)c1-c1ccc(Cl)cc1 | 23.68 | 11.8 | 6.48 | 76.8 |  |
| Cc1ccc(C2(c3nnc(-c4nn(-c5ccc(Cl)cc5Cl)c(-c5ccc(Cl)cc5)c4Cn4cncn4)s3)CC2)cc1 | 23.68 |  |  |  |  |
| FC(F)(F)C1(c2nnc(-c3nn(-c4ccc(Cl)cc4Cl)c(-c4ccc(Cl)cc4)c3Cn3cncn3)s2)CC1 | 23.68 | 1590 |  | 3630 |  |
| Clc1ccc(-c2c(Cn3cncn3)c(-c3nnc(C4(c5ccccc5)CC4)s3)nn2-c2ccc(Cl)cc2Cl)cc1 | 23.68 |  |  |  |  |
| Clc1ccc(-c2c(Cn3cncn3)c(-c3nnc(C4(c5ccc(Cl)cc5)CC4)s3)nn2-c2ccc(Cl)cc2Cl)cc1 | 23.68 |  |  |  |  |
| FC(F)(F)c1ccccc1-n1nc(-c2nnc(C3(C(F)(F)F)CCC3)s2)c(Cn2cncn2)c1-c1ccc(Br)cc1 |  | 6.3 | 4.38 | 27.6 |  |
| CC(C)(C)c1nnc(-c2nn(-c3ccc(Cl)cc3Cl)c(-c3ccc(Br)cc3)c2Cn2cncn2)s1 | 23.68 |  | 1.54 | 430 | IC50 (Cytochrome P450 3A4): > 20000 nM; IC50 (Cytochrome P450 2C9): 2600 nM; Activity (Nucleic Acid): Non-toxic; IC50 (Cytochrome P450 2D6): > 20000 nM; IC50 (Cytochrome P450 1A2): 2700 nM |
| C[C@H](NC(=O)C(C)(C)Oc1ccc(C(F)(F)F)cn1)[C@@H](Cc1ccc(Cl)cc1)c1cccc(C#N)c1 [TARANABANT] | 29.55 |  |  |  | half-life [1]: 2.76 h; half-life [2]: 14.8 h; Activity (Rattus norvegicus [3]): 17.16%; AUC (Rattus norvegicus [4]): 24.75 min/µg/mL; bioavailability [5]: 67.6%; IC50 (Cytochrome P450 2C9): 930 nM; Clast (Rattus norvegicus [6]): 10 ng/mL; Activity [7]: Non-toxic; IC50 [8]: 14200 nM; Activity (Nucleic Acid): Non-toxic; Clast (Rattus norvegicus [16]): 20 ng/mL; IC50 (Cytochrome P450 2D6): 590 nM; AUC (Rattus norvegicus [10]): 83.64 min/µg/mL; clearance [11]: 40.8 mL/min/kg; IC50 (Cytochrome P450 1A2): > 20000 nM; Cmax [12]: 470 ng/mL; BPR [17]: 52%; Cmax [13]: 360 ng/mL; Tmax [14]: 0.5 h |
| Clc1ccc(-n2nc(-c3nnc(C4(c5ccccc5)CC4)s3)c(Cn3cncn3)c2-c2ccc(Br)cc2)c(Cl)c1 | 23.68 |  | 2.23 |  |  |
| FC(F)(F)C1(c2nnc(-c3nn(-c4ccc(Cl)cc4Cl)c(-c4ccc(Br)cc4)c3Cn3cncn3)s2)CC1 | 23.68 |  | 0.991 |  |  |
| Cc1ccc(C2(c3nnc(-c4nn(-c5ccc(Cl)cc5Cl)c(-c5ccc(Br)cc5)c4Cn4cncn4)s3)CC2)cc1 | 23.68 |  | 2.74 |  |  |
| FC(F)(F)C1(c2nnc(-c3nn(-c4ccccc4Cl)c(-c4ccc(Cl)cc4)c3Cn3cncn3)s2)CCC1 | 23.68 |  | 1.01 |  |  |
| CC(C)(C)c1nnc(-c2nn(-c3ccc(Cl)cc3Cl)c(-c3ccc(Cl)cc3)c2Cn2cncn2)s1 | 23.68 | 659 | 1.73 | 1140 |  |
| FC(F)(F)C1(c2nnc(-c3nn(-c4ccccc4Cl)c(-c4ccc(Cl)cc4)c3Cn3cncn3)s2)CC1 | 23.68 |  | 1.66 |  |  |
| FC(F)(F)C1(c2nnc(-c3nn(-c4ccccc4Cl)c(-c4ccc(Br)cc4)c3Cn3cncn3)s2)CCC1 |  | 87 | 0.848 | 73.6 |  |
| CC(C)(C)c1nnc(-c2nn(-c3ccccc3Cl)c(-c3ccc(Cl)cc3)c2Cn2cncn2)s1 | 23.68 |  |  |  |  |
| Clc1ccc(C2(c3nnc(-c4nn(-c5ccc(Cl)cc5Cl)c(-c5ccc(Br)cc5)c4Cn4cncn4)s3)CC2)cc1 | 23.68 |  | 0.877 |  |  |
| FC(F)(F)C1(c2nnc(-c3nn(-c4ccc(Cl)cc4Cl)c(-c4ccc(Cl)cc4)c3Cn3cncn3)s2)CCC1 | 23.68 | 175 |  | 505 | IC50 (Cytochrome P450 3A4): > 20000 nM; Activity (Rattus norvegicus [3]): 14.43%; EC50 (Vero): > 100000 nM; IC50 (Cytochrome P450 2C9): > 20000 nM; Activity [7]: Non-toxic; IC50 [8]: > 10000 nM; Activity (Nucleic Acid): Non-toxic; IC50 (Cytochrome P450 2D6): > 20000 nM; EC50 (HEK293): > 100000 nM; EC50 [18]: > 100000 nM; Activity (Mus musculus [19]): 34.45%; IC50 (Cytochrome P450 1A2): > 20000 nM; EC50 (HCT-116): > 100000 nM |
| Clc1ccc(-c2c(Cn3cncn3)c(-c3nnc(C4(c5ccc(Cl)cc5)CC4)s3)nn2-c2ccccc2Cl)cc1 | 23.68 | 274 | 0.966 | 265 |  |
| CC1(c2nnc(-c3nn(-c4ccc(Cl)cc4Cl)c(-c4ccc(Br)cc4)c3Cn3cncn3)s2)CC1 | 23.68 |  | 2.91 |  |  |
| FC(F)(F)C1(c2nnc(-c3nn(-c4ccc(Cl)cc4Cl)c(-c4ccc(Br)cc4)c3Cn3cncn3)s2)CCC1 | 23.68 |  | 3.27 |  |  |
| CC1(c2nnc(-c3nn(-c4ccc(Cl)cc4Cl)c(-c4ccc(Cl)cc4)c3Cn3cncn3)s2)CC1 | 23.68 |  | 2.4 |  |  |
| FC(F)(F)C1(c2nnc(-c3nn(-c4ccccc4Cl)c(-c4ccc(Br)cc4)c3Cn3cncn3)s2)CC1 |  | 125 | 0.992 | 124 |  |
